The nature of series [1]: Phase I human pharmacokinetics of single doses (Example 15). Format: in vivo, humans. As for the experimental part:
The following example describes a clinical study evaluating inhaled dry powder porous particles containing epinephrine (Formulation VII, as described in Table A). The study was a Phase I, randomized, double blind, placebo-controlled, dose escalation study of the safety, tolerability and pharmacokinetics (PK) of single doses of dry powder epinephrine in healthy male subjects. […] Safety and PK information was obtained for at least 2 hours following dosing.

The nature of series [2]: Rat pharmacokinetics, plasma epinephrine after intratracheal insufflation or IM injection (Example 12). Format: in vivo, Sprague Dawley rats. The note with it: rats, injected intramuscularly with epinephrine in solution, up to 20 minutes. The protocol:
(§1) Blood samples were taken from the rats via jugular catheters at time points 0, 2.5, 5, 10, and 20 minutes following dosing. Measurements of heart rate were also made at the same time points.
Dose Administration. The powder was delivered to the lungs of rats by an insufflation technique. The insufflator device was from PennCentury (Philadelphia, Pa.). The delivery tube of the insufflator was inserted intratracheally through the mouth until the tip of the tube was about a centimeter from the carina (first bifurcation). […] The volume of […] used to deliver the powder from the sample chamber was 3 mL, which was achieved from a charged syringe. The syringe was recharged and discharged two more times for a total of three discharges per powder dose in order to decrease or eliminate powder residues in the sample chamber.
Study Design. The jugular vein of animals used in pharmacokinetics studies was catheterized with PE90 on the day before the dosing and sampling was performed. A total of six animals were used in this study. For anesthesia (catheter placement and powder dosing), a mixture of ketamine (25 mg), xylazine (3 mg), and acepromazine (0.2 mg) was injected intraperitoneally (IP) into each animal. […] Blood was taken and heart rate was measured using a pulse oximeter attached to the right hind limb of the rats at time 0, 2.5, 5.0, 10.0, and 20.0 minutes. […]

The next series concerns healthy male subjects. As to the kind of experiment: Phase I human pharmacodynamics, potassium change from baseline (Example 15). The class given is in vivo, humans. The settings on record: dry powder 800 micrograms, EpiPen 300 micrograms, standard IM 300 micrograms. The protocol: Safety and PK information was obtained for at least 2 hours following dosing.
For another series, the system named is Male Sprague Dawley rats. As to the kind of experiment: Rat heart rate by pulse oximeter after dosing (Example 12). The class given is in vivo. As for the experimental part: as §1
Study Design. The jugular vein of animals used in pharmacokinetics studies was catheterized with PE90 on the day before the dosing and sampling was performed. A total of six animals were used in this study. For anesthesia (catheter placement and powder dosing), a mixture of ketamine (25 mg), xylazine (3 mg), and acepromazine (0.2 mg) was injected intraperitoneally (IP) into each animal. The rats were placed on a heating pad after catheter placement to recover. After powder dosing, the rats were placed back in their respective cages. Identification numbers assigned to the rats were written on their tails as well as on the cage cards. Blood was taken and heart rate was measured using a pulse oximeter attached to the right hind limb of the rats at time 0, 2.5, 5.0, 10.0, and 20.0 minutes. The blood samples were collected by syringe from the jugular vein catheter. The blood was carefully ejected into EDTA coated tubes, mixed and then centrifuged for 5 minutes at 14,000 g to separate the plasma from the cells. Plasma was placed into clean microfuge tubes and stored refrigerated until received at the laboratory. […]

A short description of series [3]: Stability of epinephrine in dry powders with antioxidants, loosely capped vials (Example 10), HPLC. The note with it: 40° C. and 15% RH, compared to control containing no antioxidants. The class given is physicochemical. The source says: Solution preparation. […] The leucine and the antioxidant were present at a combined 82% of the total solids concentration. The two phases were static-mixed immediately prior to being spray dried.
Solutions containing BHT, Vitamin E and Vitamin C were made using a slightly different procedure as follows. […] Additional ethanol pure solvent was static-mixed with the 50/50 ethanol/water solution to form a 70/30 (v/v) ethanol/water solution. The Vitamin E formulation at the 0.3% and 0.9% loadings were prepared as follows. The Vitamin E at these levels was dissolved in the complete organic phase and static-mixed with the aqueous phase which prevented the Vitamin E from precipitating out of solution. Vitamin C was only dissolved in the aqueous phase at 0.9% and the three other powders containing vitamin C at 0.6, 0.9 and 2.0% was prepared with Vitamin C dissolved in the organic phase. Spray drying of all of the powders was performed as described for Formulation IX using the procedure of Example 7.
Stability conditions and analysis. 50 mg of powder was placed into a 7 mL scintillation vial. The vial was loosely capped and placed inside an oven at 40° C. and approximately 15% relative humidity (RH). Samples were analyzed immediately (T0) and after 1, 2, 4 and 8 weeks of such storage. Controls containing no antioxidants (i.e., Formulation IX) were also placed at 45° C. and 50° C. loosely capped.

Read-outs that look alike come from different tables or passages of the source. Some results are limits rather than exact numbers.

In the case of `CNCC(O)c1ccc(O)c(O)c1` (centres unmarked) [Epinephrine, 4-[1-hydroxy-2-(methylamino)ethyl]-1,2-benzenediol], in series [1] (healthy male subjects, standard IM injection, 300 micrograms, n = 7), the “CMAX % CV” value worked out at 66%. For the same compound, the Cmax in series [1] (male, human, plasma, im, 300 micrograms, healthy male subjects, standard IM injection, 300 micrograms, n = 7, read-out: CMAX Mean (SD)) is 0.263 ng/mL; in series [1] (male, human, plasma, im, 300 micrograms, standard IM injection 300 micrograms, read-out: CMAX values of 2 subjects with higher values) it was 0.405 ng/mL; in series [1] (male, human, plasma, im, 300 micrograms, standard IM injection 300 micrograms, read-out: CMAX values of the others in the group) it was not above 0.22 ng/mL. The Tmax in series [1] (male, human, plasma, im, 300 micrograms, healthy male subjects, standard IM injection, 300 micrograms, n = 7, read-out: TMAX (range)) was 1 to 60 min. Also, the “CMAX values of 2 subjects with higher values” in series [1] (standard IM injection 300 micrograms) came to 595 pg/mL. In addition, the “Plasma epinephrine levels (in words)” value in series [2] was “very low and not significantly different from room air controls”. The “time of maximal potassium mean change from baseline” value in the series on healthy male subjects was “continued to decrease through 60 minutes post-dose”. In addition, the “heart rate increase in one animal” value in the series on Male Sprague Dawley rats (one rat intramuscularly injected, observed out to 40 minutes, 25 minutes following dosing) turned out to be 340 beats/minute. Also, in the series on Male Sprague Dawley rats (rats, IM-injected, up to 20 minutes), the “heart rate compared to baseline (in words)” value is reported as “did not exhibit a significant increase in heart rate”.

`O=C1O[C@H]([C@@H](O)CO)C(O)=C1O` [Ascorbic acid, ascorbic acid]: in series [3], the “protection against degradation of epinephrine (in words)” value (from here on “protection against degradation”) was “not effective antioxidants”.

For `Cc1cc(C(C)(C)C)c(O)c(C(C)(C)C)c1` [BHT, butylated hydroxytoluene], the “protection against degradation” value in series [3] is on record as “not effective antioxidants”.

On to `O=S([O-])S(=O)(=O)[O-].[Na+].[Na+]` [Sodium metabisulfite, sodium metabisulfite], for which the “protection against degradation” value in series [3] was “good protection against degradation of epinephrine”.

As to `O=C(O)CN(CCN(CC(=O)O)CC(=O)O)CC(=O)O` [EDTA, ethylenediamine tetra-acetic acid], in series [3], the “protection against degradation” value is “good protection against degradation of epinephrine”.

The Cmax is the highest concentration seen after dosing. The term Tmax denotes the time at which the peak concentration occurs.

Values taken from patent US7947742B2 (Civitas Therapeutics, Inc., priority 2002, dated 2011).
